Assay results reported in patent US6759385B1, “Methods to treat undesirable immune responses” (Regents of the University of Minnesota, priority 1997, dated 2004).

Experiments:
[1] = Distribution in the respiratory tract of solutions administered nasally; format: in vivo, mouse; conditions: 25 μl of 4% solution into nostrils, 10-15 minutes
Protocol: Distribution in the Respiratory Tract of Solutions Administered Nasally. To determine which parts of the mouse respiratory system came in contact with solutions given nasally, a solution of ethidium bromide was employed. Ethidium bromide is absorbed through the mucosal lining of the respiratory tract and fluoresces brightly under U.V. light. Two mice were anesthetized and 25 μl of a 4% ethidium bromide solution in PBS was instilled into the nostrils. Ten-fifteen minutes later the animals were sacrificed by cervical dislocation. Their nasal cavities, larynx, trachea, bronchi and lungs were dissected, washed in PBS and examined under U.V. light for ethidium bromide staining.

[2] = system: CD4+ cells of MG patients; assay: Response of CD4+ T cells of MG patients to synthetic human AChR peptides; format: cell-based; conditions: irrespective of HLA class II type
Text: Several studies have identified sequences of the human AChR α subunit recognized by T cells in MG patients. To determine whether the CD4^+ cells recognizing those immunodominant and/or universal epitope sequences can drive the synthesis of pathogenic anti-AChR antibodies, and how the ability of the different sequence regions of the AChR to interact with different HLA DR molecules correlates with the presence of universal CD4^+ epitopes, synthetic peptides based on the amino acid sequence of the human α subunit of AChR (Noda et al., Nature, 305, 818 (1983); Schoepfer et al., FEBS Lett., 226, 235 (1981)) were prepared. The peptides were approximately 20 residues long, a length that compares with that of naturally processed class II-restricted epitopes, which are 9-14 residues. […] The peptides overlapped by 5-10 residues to reduce the risk of missing epitopes “broken” between peptides.
The response to individual overlapping synthetic AChR peptides spanning the sequence of each AChR subunit, of unselected blood […], and of CD4^+ T cell lines enriched with AChR-specific cells by culture in vitro with ACHR antigens, was tested. The use of those two cell populations has different advantages and limitations. AChR-specific CD4+ lines have strong, consistent responses to individual peptides that allow a clear-cut assessment of their epitope repertoire. However, they may have an epitope repertoire different from that of the original CD4^+ population due to biased clonal propagation in vitro. Also, denatured forms of the antigen such as synthetic and biosynthetic peptides, which are commonly used for propagation of CD4+ cells specific for rare antigens, may be processed into peptide epitopes different from those obtained from processing of the native antigen in vivo and may expand […] irrelevant for the immune process in vivo. […]

[3] = system: EMG in B6 mice immunized with TAChR; assay: Subcutaneous tolerization, prevention protocol, EMG symptoms (Example IV); format: in vivo, mouse; conditions: s.c. 10 μg/injection
Protocol: (§1) B6 mice (Jackson Laboratory, Bar Harbor, Me.) were injected s.c. with 100 μl of PBS containing increasing amounts of a pool of the same amount in weight of each of the three epitope peptides Tα150-169, Tα180-200 and Tα360-378 (‘peptide pool’), or 200 μg of Tα150-169 alone, or 100 μl of PBS containing 0.1% Triton X-100 and 10 μg of solubilized TAChR. Two different treatment schedules were used, referred to as prevention and post-priming protocols. In the prevention protocol, the peptides or solubilized TAChR were administered twice per week for 14 weeks, starting 2 weeks before the beginning of the immunization with TAChR. In the post-priming protocol, peptides or solubilized TAChR were administered twice per week for […], starting 8 weeks after the beginning of the TAChR immunization. Control mice received 100 μl of peptide-free PBS, following the same schedules.
(§2) Immunization 8-10 week old mice were immunized by s.c. injections, along the back and at the base of the tail, of TAChR (a total of 50 μg in 100 μl of PBS for each immunization) emulsified in an equal volume of CFA for the first injection, and IFA for the following two boosts. The mice were injected for a total of three times at 3-4 week intervals. At the end of the observation period, the mice received a third boost, and were sacrificed 5-7 days later. Control mice were injected with clean PBS in the appropriate adjuvant.
(§3) Evaluation of the symptoms of EMG The EMG symptoms were quantified using a forced exercise test sensitized by i.p. injection of a minute amount of pancuronium bromide (0.03 mg/kg) just before the test (Karachunski et al., 1995). The mouse hangs from a grid suspended above a soft padding, and the time it takes the mouse to fall three times (‘holding time’) was measured. The test is parametric, and gives a quantitative assessment of the mouse weakness. The myasthenic nature of the weakness was verified by injecting i.p. edrophonium chloride (Reversol, Organon, West Orange, N.J.), which is a cholinesterase inhibitor. […] The mice were tested without knowledge of their treatment.
The holding time of normal mice was 10.4±2.1 minutes (n=99). Mice with holding times of 8 minutes or longer were considered normal. Mice with holding times less than 6.2 minutes (the holding time of normal mice minus two SD) were considered to have fully developed EMG. Holding times of 6.2-8 minutes were considered to potentially indicate initial EMG. Normal or sham-immunized mice had occasionally holding times of 6.2-8 minutes, but never less than 6.2 minutes. Paralyzed mice and mice that died of respiratory paralysis are indicated as having holding time of 0 minutes.

serum anti-TAChR Ab = assay: Anti-TAChR IgG and IgG1 radioimmunoprecipitation assay (Example IV); format: in vivo, mouse; conditions: s.c. tolerization, prevention protocol
Protocol: Anti-TAChR Ab assay. Sera was obtained from each mouse after each clinical testing and at the end of the observation period (12 weeks after beginning of the TAChR immunization). The serum concentration of anti-TAChR IgG and IgGI was determined by radioimmunoprecipitation assay, using TAChR solubilized in Triton X-100 and labeled by the binding of ^125I-α-BTX (Bellone et al., 1991a). As a secondary Ab, either rabbit anti-mouse IgG produced, or goat anti-mouse IgG1 (Sigma, St. Louis, Mo.), was used. The anti-TAChR Ab concentration is expressed as μM precipitated ^125I-α-BTX binding sites.
Two types of experiments were carried out. In one of them the total anti-TAChR Ab in the sera of individual mice, obtained 8, 10 and 12 weeks after the first TAChR immunization, was determined. In the other, the anti-TAChR IgG1 concentration was determined, as well as the total anti-TAChR IgG concentration, in sera obtained at the end of the observation period. For this second assay pooled sera from five mice that had received identical treatments was used.

[4] = system: established EMG in B6 mice; assay: Subcutaneous treatment, post-priming protocol, established EMG (Example IV); format: in vivo, mouse
Protocol: as §1, §2
as §3, with “treatment. […]” for “treatment.”

For CC[n+]1c(-c2ccccc2)c2cc(N)ccc2c2ccc(N)cc21 [ethidium bromide], the staining of bronchi [1] was “increasingly weaker”, the “staining of lung parenchyma” value [1] was “only weak focal signals” and the “staining of nostrils, larynx and trachea” value [1] was “brightly stained”.

In the case of “peptide α304-322: synthetic sequence of the human AChR α subunit, universal epitope (STHVMPNWVRKVFIDTIPN; UniProt P02708 324-342, looked up, fragment)”, the “recognition by CD4+ cells of MG patients” value [2] is reported as “recognized by the majority of the patients”.

For “solubilized TAChR: Torpedo californica acetylcholine receptor purified from electric organ, solubilized in Triton X-100”, the “protection from EMG” value [3] was “protected from EMG to levels comparable”, the “mice with clear EMG weakness” value ([3]; at 12 weeks) was “one of 12” and the “mice with holding times of 6.2-8 minutes” value ([3]; at 12 weeks) was “two mice”. The “effect on anti-TAChR Ab synthesis” value (serum anti-TAChR Ab) was “delayed but did not ultimately affect”, the “mice with holding times of 6.2 or less” value ([4]; at 44 weeks, s.c. post-priming protocol) was 80% and the “EMG frequency after the s.c. treatment had started” value ([4]; s.c. without adjuvant, post-priming protocol) was “very high EMG frequency”.

For “α101-137: human AChR α subunit sequence region covered by peptides α101-120 and α118-137 (AIVKFTKVLLQYTGHITWTPPAIFKSYCEIIVTHFPF; UniProt P02708 121-157, looked up, fragment)”, the “recognition by CD4+ cells of MG patients” value [2] was “recognized by the majority of the patients”.

For “α403-437: carboxyl-terminal human AChR α subunit sequence covered by peptides α403-421 and α419-437 (AMVMDHILLGVFMLVCIIGTLAVFAGRLIELNQQG; UniProt P02708 423-457, looked up, fragment)”, the “recognition by CD4+ cells of MG patients” value [2] was “recognized by the majority of the patients”.
